Experimental data published in patent publication US20260284214A1, “EXATECAN DERIVATIVE AND ANTIBODY-DRUG CONJUGATE THEREOF” (priority 2023, published 2026).
Where two headings read alike, the source gives them in different places. Marks after values point to notes of the source that are not given here.

Tests used:
[1] = system: KPL-4 (human breast cancer cells); experiment: Cell-proliferation inhibitory activity (CellTiter-Glo, 3 days); format: cell-based; conditions: KPL-4 cells
From the text: (§1) The experiment was intended to detect in-vitro inhibitory activities of the compounds of the present disclosure on NCI-N87 (human gastric cancer cells), KPL-4 (human breast cancer cells) or MDA-MB-468 (human breast cancer cells).
(§2) Human gastric cancer cells NCI-N87 (ATCC, article number: CRL-5822), human breast cancer cells MDA-MB-468 (Cell Bank of the Committee on Type Culture Collection, Chinese Academy of Sciences, article number: TCHu136) and human breast cancer cells KPL-4 (Nanjing Cobioer Biosciences Co., Ltd., article number: CBP60379) were washed with PBS, then the cells were digested with 0.25% Trypsin-EDTA trypsin for about 3-10 minutes, and the digestion was terminated with a complete cell culture medium. The cells were centrifuged at 1000 rpm for 5 minutes, the supernatant was discarded, and the cells were resuspended with a complete cell culture medium, counted by a cell counter, and adjusted to a required density. Each well was added with 90.0 μL of the cell suspension according to 3000 cells per well, and the cell plate was placed into a 5% CO2 cell incubator at 37° C. to incubate the cells overnight.
(§3) In the experiment, a DMSO control group, a positive control group and a test sample group were provided respectively, and the compound Dxd was used as a positive control compound. The cell plate was taken out of the incubator to observe a cell adhesion state, and after cell adhesion, each well was added with 10.00 μL of the sample (starting from a final concentration 10 μM, diluted 5 times, 9 concentrations), shaken gently, and then placed into an incubator to incubate the cells.
(§4) After incubation for 3 days, each well was added with a CellTiter-Glo™ (Promega, article number: G7572/G7571) working solution according to 100.0 μL/well and oscillated by a constant-temperature oscillator to lyse the cells, and 10 minutes later, the plate was read on a microplate reader.
(§5) A calculation formula of a cell-proliferation inhibition rate was: cell-proliferation inhibition rate=(1−RLUtest sample well/RLUDMSO control well)×100%.
(§6) Data analysis: a graph was made by GraphPad Prism 8.0 software with a Log value of a sample concentration as an abscissa and Inhibition % as an ordinate, and data were subjected to Nonlinear regression (curve fit) analysis to obtain an IC50 value of each test sample.

[2] = system: MDA-MB-468 (human breast cancer cells); experiment: as above; format: cell-based; conditions: MDA-MB-468 cells
From the text: as §1, §2, §3, §4, §5, §6

[3] = system: NCI-N87 (human gastric cancer cells); experiment: as above; format: cell-based
From the text: as §1, §2, §3, §4, §5, §6

SD rats = experiment: Toxicity comparison after repeated administration to SD rats for 7 days (hematology); format: in vivo; conditions: 0.1 mg/kg iv for 7 consecutive days, end of study
Experimental: SD rats were taken as test animals to study toxic reactions after intravenous injection of the compounds of the present disclosure to male and female SD rats at a dosage of 0.1 mg/kg for 7 consecutive days.
• Species: male and female SD rats (5 female rats and 5 male rats/group) • Grade: SPF grade • Weight: ♂ 252.0-287.4 g and ♀ 185.7-224.3 g • Age: 8-12 weeks • Source: Zhejiang Vital River Laboratory Animal Technology Co., Ltd.
Male and female SD rats were injected with the test sample solution, and Compound 2 of the example and the Dxd were given in a dosage of 0.1 mg/kg and a dosage volume of 10 mL/kg.
Preparation of test sample solution: the test sample was dissolved with a solvent (5% DMSO+95% Solutol HS-15 in water).
About 0.2 mL of blood was collected from the jugular sinus of the animals into an anticoagulant tube containing an anticoagulant (EDTA-K2) on D3 after administration, and all to-be-dissected animals were fasted for about 12 hours on the eve of D8 before dissection. Dying animals were euthanized, about 2 mL of blood was collected from abdominal aorta into an anticoagulant tube containing an anticoagulant (EDTA-K2) at the time of dissection, and hematological indexes were detected by a Sysmex XN-1000 hemocytometer. Specific detection indexes were as follows.

BxPC-3 cells = experiment: Cell inhibitory activity experiment of cytotoxic drug (CellTiter-Glo, 72 hours); format: cell-based, human
Experimental: (§7) Human pancreatic adenocarcinoma cells BxPC-3 (ATCC, article number: CRL-1687) and human pharyngeal squamous cell carcinoma cells FaDu (ATCC, article number: HTB-43) were washed with PBS, then the cells were digested with 0.25% Trypsin-EDTA trypsin for about 3 minutes, and the digestion was terminated with a complete cell culture medium. The cells were centrifuged at 1000 rpm for 5 minutes, the supernatant was discarded, and the cells were resuspended with a complete cell culture medium, counted by a cell counter, and adjusted to a required density. Each well was added with 50 μL of the cell suspension according to 3000 cells per well, and the cell plate was placed into a 5% CO2 cell incubator at 37° C. to incubate the cells for 12-16 hours.
(§8) The cell plate was taken out of the incubator to observe a cell adhesion state, and after cell adhesion, each well was added with 50 μL of the sample (starting from 10 μM, diluted 5 times, 9 concentrations), shaken gently, and then placed into an incubator to incubate the cells for 72 hours. Each well was added with a Cell Titer-GLO™ (Promega, article number: G7572) working solution according to 100 μL/well and shaken gently to lyse the cells, and the plate was read on a microplate reader.
(§9) Data analysis: a graph was made by GraphPad Prism 7.0 software with a Log value of a sample concentration as an abscissa and Cytotoxicity % as an ordinate, and data were subjected to Nonlinear regression (curve fit) analysis to obtain an IC50 value of each compound.

FaDu cells = experiment: as above; format: cell-based, human
Experimental: as §7, §8, §9

Row | Structure (SMILES) | IC50 ([1]; Homo sapiens, KPL4, 72 h) [nM] | IC50 ([2]; Homo sapiens, 72 h) [nM] | IC50 ([3]; Homo sapiens, 72 h) [nM] | #MONO, change compared with the control group (SD rats; ♀ SD rats) [%**] | #RETIC, change compared with the control group (SD rats; ♀ SD rats) [%**] | HCT, change compared with the control group (SD rats; ♀ SD rats) [%**] | HGB, change compared with the control group (SD rats; ♀ SD rats) [%**] | RBC, change compared with the control group (SD rats; ♀ SD rats) [%**] | #EOS, change compared with the control group (SD rats; ♂ SD rats) | #MONO, change compared with the control group (SD rats; ♂ SD rats) [%**] | #NEUT, change compared with the control group (SD rats; ♂ SD rats) [%**] | #RETIC, change compared with the control group (SD rats; ♂ SD rats) | also measured
1 | CC[C@@]1(O)C(=O)OCc2c1cc1n(c2=O)Cc2c-1nc1cc(F)c(C)c3c1c2[C@@H](NC(=O)CO)CC3 [Dxd] | 32.3 | 2.71 | 22.6 | −71.3 | −96.9 | −15.8 | −12.7 | −13.4 | −70.2%* | −77.2 | −66.9 | −95.5%* | #EOS, change compared with the control group (SD rats; ♀ SD rats): −84.44%**; #LUC, change compared with the control group (SD rats; ♀ SD rats): −66.9%**; #NEUT, change compared with the control group (SD rats; ♀ SD rats): −66.1%*; MCHC, change compared with the control group (SD rats; ♀ SD rats): 3.6%**; WBC, change compared with the control group (SD rats; ♀ SD rats): −47.6%*; #BASO, change compared with the control group (SD rats; ♂ SD rats): −82.1%*; HCT, change compared with the control group (SD rats; ♂ SD rats): −15.7%**; HGB, change compared with the control group (SD rats; ♂ SD rats): −12.8%**; MCHC, change compared with the control group (SD rats; ♂ SD rats): 3.2%**; RBC, change compared with the control group (SD rats; ♂ SD rats): −15.3%**
2 | C#CCN(CCO)C(=O)N[C@H]1CCc2c(C)c(F)cc3nc4c(c1c23)Cn1c-4cc2c(c1=O)COC(=O)[C@]2(O)CC [Example 2] |  |  |  | −54.1 | −86.4 | −12.0 | −10.7 | −10.9 | −71.4%** | −68.3 | −72.2 | −87.3%** | IC50 (BxPC-3 cells): 0.96 nM; IC50 (FaDu cells): 1.49 nM; IC50 [1]: 29.6 nM; IC50 [2]: 2.41 nM; IC50 [3]: 11 nM
3 | C=CCN(CCO)C(=O)N[C@H]1CCc2c(C)c(F)cc3nc4c(c1c23)Cn1c-4cc2c(c1=O)COC(=O)[C@]2(O)CC [Example 3, 1-allyl-3-((1S,9S)-9-ethyl-5-fluoro-9-hydroxy-4-methyl-10,13-dioxo-2,3,9,10,13,15-hexahydro-1H,12H-benzo[de]pyrano[3′,4′:6,7]indolizino[1,2-b]quinolin-1-yl)-1-(2-hydroxyethyl)urea] | 8.82 | 0.99 | 6.39 |  |  |  |  |  |  |  |  |  | IC50 (BxPC-3 cells; Homo sapiens): 0.76 nM; IC50 (FaDu cells; Homo sapiens): 1.09 nM
